Experimental data taken from patent publication US9457033B2, “Steroid alkaloids and uses thereof as antimicrobial agents against electron transport-deficient microbes and as potentiators for antimicrobial agents against pathogenic bacteria” (priority 2011, dated 2016).
≈ marks a conversion by molar mass, not a printed value.

Assays:
[1] = tested on: S. aureus Mu50; experiment: MIC, microdilution in CAMHB 24 h; format: cell-based, Staphylococcus aureus; settings: Staphylococcus aureus, MRSA / VISA
[2] = tested on: S. aureus ATCC 43300; experiment: MIC, microdilution in CAMHB 24 h; format: cell-based, Staphylococcus aureus; settings: Staphylococcus aureus, ATCC 43300 / MRSA
[3] = tested on: S. aureus CF8E-L; experiment: MIC, microdilution in CAMHB 24 h; format: cell-based, Staphylococcus aureus; settings: Staphylococcus aureus, CF8EL
[4] = tested on: S. aureus ATCC 29213; experiment: MICs of control antibiotics for macromolecular biosynthesis assays; format: cell-based; settings: Staphylococcus aureus, ATCC29213
[5] = tested on: S. aureus ATCC BAA-41; experiment: MIC, microdilution in CAMHB 24 h; format: cell-based, Staphylococcus aureus; settings: Staphylococcus aureus, ATCC BAA-41 / MRSA
[6] = tested on: S. aureus ATCC 29213; experiment: MIC, microdilution in BHI 48 h (Examples 1, 3); format: cell-based, Staphylococcus aureus
[7] = tested on: S. aureus CF1A-L; experiment: MIC, microdilution in CAMHB 24 h; format: cell-based, Staphylococcus aureus; settings: Staphylococcus aureus, CF1AL
[8] = tested on: S. aureus CF4B-L; experiment: MIC, microdilution in CAMHB 24 h; format: cell-based, Staphylococcus aureus; settings: Staphylococcus aureus, CF4BL
[9] = tested on: S. aureus CF2A-L; experiment: MIC, microdilution in CAMHB 24 h; format: cell-based; settings: Staphylococcus aureus, CF2AL
[10] = tested on: S. aureus CF35A-L; experiment: MIC, microdilution in CAMHB 24 h; format: cell-based, Staphylococcus aureus; settings: Staphylococcus aureus, MRSA
[11] = tested on: S. aureus Newbould (normal strain); experiment: MIC, microdilution in BHI 48 h; format: cell-based, Staphylococcus aureus
[12] = tested on: protein, DNA, RNA and cell wall peptidoglycan biosynthesis in ATCC 29213; experiment: Macromolecular biosynthesis assay, incorporation of radiolabeled precursors; format: cell-based, Staphylococcus aureus; settings: control antibiotics at approximately 4×MIC; FIG. 3A
[13] = tested on: S. aureus Newbould; experiment: MIC, microdilution in CAMHB 24 h; format: cell-based, Staphylococcus aureus; settings: Staphylococcus aureus
[14] = tested on: S. aureus SHY97-3906; experiment: MIC, microdilution in CAMHB 24 h; format: cell-based, Staphylococcus aureus; settings: Staphylococcus aureus, SHY973906
[15] = tested on: S. aureus SCV CF07-S; experiment: MIC, microdilution in BHI 48 h (Examples 1, 3); format: cell-based, Staphylococcus aureus
[16] = tested on: S. aureus Sa220c; experiment: MIC, microdilution in CAMHB 24 h; format: cell-based, Staphylococcus aureus; settings: Staphylococcus aureus, MRSA
[17] = tested on: S. aureus CF07-L (normal strain); experiment: MIC, microdilution in BHI 48 h (Examples 1, 3); format: cell-based, Staphylococcus aureus
[18] = tested on: S. aureus MA078038; experiment: MIC, microdilution in CAMHB 24 h; format: cell-based, Staphylococcus aureus; settings: Staphylococcus aureus, MRSA
[19] = tested on: S. aureus N315; experiment: microbe, parasite or virus in culture; format: cell-based, Staphylococcus aureus; settings: Staphylococcus aureus, MRSA
[20] = tested on: S. aureus ATCC 29213; experiment: MIC, microdilution in CAMHB 24 h, with or without tomatidine/compound; format: cell-based, Staphylococcus aureus; settings: for MIC: Staphylococcus aureus
[21] = tested on: S. aureus 8325-4; experiment: MIC, microdilution in CAMHB 24 h; format: cell-based, Staphylococcus aureus; settings: Staphylococcus aureus, 83254
[22] = tested on: S. aureus Newman; experiment: MIC, microdilution in CAMHB 24 h; format: cell-based, Staphylococcus aureus; settings: Staphylococcus aureus, NEWMAN
[23] = tested on: S. aureus MRSA COL; experiment: MIC, microdilution in CAMHB 24 h; format: cell-based, Staphylococcus aureus; settings: Staphylococcus aureus, MRSA
[24] = tested on: S. aureus Sa228c; experiment: MIC, microdilution in CAMHB 24 h; format: cell-based, Staphylococcus aureus; settings: Staphylococcus aureus, MRSA
[25] = tested on: S. aureus CF6B-L; experiment: MIC, microdilution in CAMHB 24 h; format: cell-based, Staphylococcus aureus; settings: Staphylococcus aureus, CF6BL
[26] = tested on: S. aureus CF07-L; experiment: MIC, microdilution in CAMHB 24 h; format: cell-based, Staphylococcus aureus; settings: Staphylococcus aureus, CF07L
[27] = tested on: S. aureus CF9A-L; experiment: MIC, microdilution in CAMHB 24 h; format: cell-based, Staphylococcus aureus; settings: Staphylococcus aureus, MRSA
[28] = tested on: S. aureus SCV CF1D-S; experiment: MIC, microdilution in BHI 48 h; format: cell-based, Staphylococcus aureus
[29] = tested on: S. aureus SCV NewbouldΔhemB; experiment: MIC, microdilution in BHI 48 h; format: cell-based, Staphylococcus aureus
[30] = tested on: S. aureus CF7A-L; experiment: MIC, microdilution in CAMHB 24 h; format: cell-based, Staphylococcus aureus; settings: Staphylococcus aureus, MRSA
[31] = tested on: S. aureus CF1A-L (normal strain); experiment: MIC, microdilution in BHI 48 h; format: cell-based, Staphylococcus aureus
[32] = tested on: S. aureus SCVs (NewbouldΔhemB, CF07-S and CF1D-S); experiment: MIC, microdilution in BHI 48 h, summary for SCVs; format: cell-based, Staphylococcus aureus; settings: all SCVs of Table 1

In the case of `CN[C@H](CC(C)C)C(=O)N[C@H]1C(=O)N[C@@H](CC(N)=O)C(=O)N[C@H]2C(=O)N[C@H]3C(=O)N[C@H](C(=O)N[C@H](C(=O)O)c4cc(O)cc(O)c4-c4cc3ccc4O)[C@H](O)c3ccc(c(Cl)c3)Oc3cc2cc(c3O[C@@H]2O[C@H](CO)[C@@H](O)[C@H](O)[C@H]2O[C@H]2C[C@](C)(N)[C@H](O)[C@H](C)O2)Oc2ccc(cc2Cl)[C@H]1O` [Vancomycin, vancomycin], the MIC [1] is reported as 4 µg/mL (≈ 2.76 µM), the MIC [2] is reported as 0.5 to 1 µg/mL (≈ 0.345 to 0.69 µM) and the MIC [3] is reported as 1 to 2 µg/mL (≈ 0.69 to 1.38 µM). The MIC [4] was 0.5 to 1 µg/mL (≈ 0.345 to 0.69 µM), the MIC [5] was 1 µg/mL (≈ 0.69 µM) and the MIC ([6]; ATCC 29213 + HQNO at 20 μg/ml) was 2 µg/mL. For the same molecule, the MIC ([6]; Staphylococcus aureus, ATCC29213, ATCC 29213, without HQNO) was 2 µg/mL (≈ 1.38 µM), the MIC ([6]; Staphylococcus aureus, ATCC29213, ATCC 29213 in BHI) was 2 µg/mL (≈ 1.38 µM) and the MIC ([6]; Staphylococcus aureus, ATCC29213, ATCC 29213 in MHBCA) was 1 to 2 µg/mL (≈ 0.69 to 1.38 µM). For the same molecule, the MIC [7] was 1 µg/mL (≈ 0.69 µM), the MIC [8] was 1 µg/mL (≈ 0.69 µM) and the MIC [9] was 1 µg/mL (≈ 0.69 µM). For the same molecule, the MIC [10] was 1 µg/mL (≈ 0.69 µM), the MIC ([11]; Staphylococcus aureus) was 1 µg/mL (≈ 0.69 µM) and the “incorporation of radiolabeled precursors into the targeted macromolecules” value [12] was “preferentially inhibited”. It also gave an MIC [13] of 0.5 to 1 µg/mL (≈ 0.345 to 0.69 µM), an MIC [14] of 0.5 to 1 µg/mL (≈ 0.345 to 0.69 µM) and an MIC ([15]; CF07-S + HQNO at 20 μg/ml) of 2 µg/mL. The MIC ([15]; CF07-S, without HQNO) was 2 µg/mL (≈ 1.38 µM), the MIC ([15]; Staphylococcus aureus, SCVCF07S) was 2 µg/mL (≈ 1.38 µM) and the MIC [16] was 1 µg/mL (≈ 0.69 µM). The MIC ([17]; CF07-L + HQNO at 20 μg/ml) was 2 µg/mL, the MIC ([17]; CF07-L, without HQNO) was 2 µg/mL (≈ 1.38 µM) and the MIC ([17]; Staphylococcus aureus) was 2 µg/mL (≈ 1.38 µM). The MIC [18] was 0.5 to 1 µg/mL (≈ 0.345 to 0.69 µM), the MIC [19] was 0.5 µg/mL (≈ 0.345 µM) and the “Fold (−TO/+TO)” value ([20]; ATCC 29213, tomatidine at 8 μg/ml) was 1 fold. The MIC ([20]; ATCC29213) was 1 µg/mL (≈ 0.69 µM), the MIC ([20]; ATCC29213, read-out: MIC −TO) was 1 µg/mL (≈ 0.69 µM) and the MIC [21] was 1 µg/mL (≈ 0.69 µM). It also gave an MIC [22] of 1 µg/mL (≈ 0.69 µM), an MIC [23] of 2 µg/mL (≈ 1.38 µM) and an MIC [24] of 1 µg/mL (≈ 0.69 µM). It also gave an MIC [25] of 0.5 to 1 µg/mL (≈ 0.345 to 0.69 µM), an MIC [26] of 1 to 2 µg/mL (≈ 0.69 to 1.38 µM) and an MIC [27] of 1 µg/mL (≈ 0.69 µM). For the same molecule, the MIC ([28]; Staphylococcus aureus, SCVCF1DS) was 2 µg/mL (≈ 1.38 µM), the MIC ([29]; Staphylococcus aureus) was 2 µg/mL (≈ 1.38 µM) and the MIC [30] was 1 µg/mL (≈ 0.69 µM). For the same molecule, the MIC ([31]; Staphylococcus aureus) was 1 to 2 µg/mL (≈ 0.69 to 1.38 µM).
In the case of `C[C@H]1CC[C@]2(NC1)O[C@H]1C[C@H]3[C@@H]4CC[C@H]5C[C@@H](O[C@@H]6O[C@H](CO)[C@H](O[C@@H]7O[C@H](CO)[C@@H](O)[C@H](O[C@@H]8OC[C@@H](O)[C@H](O)[C@H]8O)[C@H]7O[C@@H]7O[C@H](CO)[C@@H](O)[C@H](O)[C@H]7O)[C@H](O)[C@H]6O)CC[C@]5(C)[C@H]4CC[C@]3(C)[C@H]1[C@@H]2C` [Tomatine, tomatine], the MIC ([6]; ATCC 29213 + HQNO at 20 μg/ml) is reported as >16 µg/mL, the MIC ([6]; ATCC 29213, without HQNO) is reported as >16 µg/mL and the MIC ([6]; ATCC 29213 in BHI) is reported as >16 µg/mL. The MIC ([6]; ATCC 29213 in MHBCA) was >16 µg/mL, the MIC ([11]; Newbould, normal strain) was >16 µg/mL and the MIC ([15]; CF07-S + HQNO at 20 μg/ml) was >16 µg/mL. For the same molecule, the MIC ([15]; CF07-S, SCV) was >16 µg/mL, the MIC ([15]; CF07-S, without HQNO) was >16 µg/mL and the MIC ([17]; CF07-L + HQNO at 20 μg/ml) was >16 µg/mL. The MIC ([17]; CF07-L, normal strain) was >16 µg/mL, the MIC ([17]; CF07-L, without HQNO) was >16 µg/mL and the MIC ([28]; CF1D-S, SCV) was >16 µg/mL. The MIC ([29]; NewbouldΔhemB, SCV) was >16 µg/mL, the MIC ([31]; CF1A-L, normal strain) was >16 µg/mL and the “MIC against all SCVs” value [32] was “no MIC was observed”.
